Laboratory results as given in patent US5087634A, “N-substituted imidazol-2-one compounds for treatment of circulatory disorders” (G. D. Searle & Co., priority 1990, dated 1992).
“And” between values parts separate entries of the source, which are not always exact repeats. Equal values may be shown once.

Legend:
[1] = system: angiotensin II pressor response; assay: In Vivo Intragastric Pressor Assay Response for AII Antagonists; design: species or system rat (male Sprague-Dawley); settings: dose 10 (units not given), gavage, listed as EX. #1
Procedure: Male Sprague-Dawley rats weighing 225-300 grams were anesthetized with methohexital (30 mg/kg, i.p.) and catheters were implanted into the femoral artery and vein. The catheters were tunneled subcutaneously to exit dorsally, posterior to the head and between the scapulae. The catheters were filled with heparin (1000 units/ml of saline). The rats were returned to their cage and allowed regular rat chow and water ad libitum. After full recovery from surgery (3-4 days), rats were placed in Lucite holders and the arterial line was connected to a pressure transducer. Arterial pressure was recorded on a Gould polygraph (mmHg). […] After allowing one hour for pressure to stabilize, the test compound (suspended in 0.5% methylcellulose in water) was administered by gavage. The volume administered was 2 ml/kg body weight. Arterial pressure was monitored for 5 hours post-dosing. The angiotensin II infusion was then discontinued and pressure was allowed to reach a stable recovery level. Percent inhibition (%I) of the angiotensin II pressor response was calculated from the difference in pressure at a given timepoint post-dosing with the test compound and the antiotensin II-infused pressure, divided by the difference in pressure with and without the angiotensin II infusion; this value was multiplied by 100. Duration of action of a test compound was defined as the time taken for pressure to return to angiotensin II-infused baseline levels after compound administration. One compound at one dose was tested in each rat. The compound of Example I was tested in two rats.

[2] = target: smooth muscle angiotensin II receptor; assay: Angiotensin II Binding Activity (displacement of 125I-AII from rat uterine membranes); settings: 25° C., 60 min, read-out: IC50 (50% displacement of the total specifically bound 125I-AII)
Procedure: Compounds of the invention were tested for ability to bind to the smooth muscle angiotensin II receptor using a rat uterine membrane preparation. Angiotensin II (AII) was purchased from Peninsula Labs. 125I-angiotensin II (specific activity of 2200 Ci/mmol) was purchased from Du Pont-New England Nuclear. Other chemicals were obtained from Sigma Chemical Co. This assay was carried out according to the method of Douglas et al [Endocrinoloby, 106, 120-124 (1980)]. Rat uterine membranes were prepared from fresh tissue. All procedures were carried out at 4° C. Uteri were stripped of fat and homogenized in phosphate-buffered saline at pH 7.4 containing 5 mM EDTA. The homogenate was centrifuged at 1500× g for 20 min., and the supernatant was recentrifuged at 100,000× g for 60 min. The pellet was resuspended in buffer consisting of 2 mM EDTA and 50 mM Tris-HCl (pH 7.5) to a final protein concentration of 4 mg/ml. Assay tubes were charged with 0.25 ml of a solution containing 5 mM MgCl2, 2 mM EDTA, 0.5% bovine serum albumin, 50 mM Tris-HCl, pH 7.5 and ^125 I-AJI (approximately 10^5 cpm) in the absence or in the presence of unlabelled ligand. […] Filters were assayed for radioactivity in a Micromedic gamma counter. […] Specific binding was calculated as total binding minus nonspecific binding. […] Binding data were analyzed by a nonlinear least-squares curve fitting program.

rabbit aortic rings = target: T1, rabbit aortic rings (Oryctolagus cuniculus, UniProt P34976); assay: In Vitro Vascular Smooth Muscle-Response for AII (rabbit aortic rings); design: species or system rabbit (male New Zealand white); settings: antagonist 10^-5 M for 5 minutes before AII; rabbit aorta rings, 37° C.; read-out: pA2 value (converted)
T1 construct: The thoracic aorta was removed, cleaned of adherent fat and connective tissue and then cut into 3-mm ring segments; from tissue; host or cells: thoracic aorta rings of male New Zealand white rabbits, endothelium removed
T1 sequence (P34976 1-359): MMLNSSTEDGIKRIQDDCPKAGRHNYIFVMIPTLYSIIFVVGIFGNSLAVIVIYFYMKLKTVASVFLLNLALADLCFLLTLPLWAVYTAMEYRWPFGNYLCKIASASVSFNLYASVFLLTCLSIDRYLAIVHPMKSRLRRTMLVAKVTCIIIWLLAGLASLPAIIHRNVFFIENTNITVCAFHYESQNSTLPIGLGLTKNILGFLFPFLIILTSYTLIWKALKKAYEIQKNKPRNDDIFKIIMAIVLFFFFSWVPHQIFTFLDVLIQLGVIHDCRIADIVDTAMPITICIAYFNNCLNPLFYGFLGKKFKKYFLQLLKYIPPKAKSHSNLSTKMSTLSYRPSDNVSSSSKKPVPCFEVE
Procedure: The compounds of the invention were tested for antagonist activity in rabbit aortic rings. Male New Zealand white rabbits (2-2.5 kg) were sacrificed using an overdose of pentobarbital and exsanguinated via the carotid arteries. The thoracic aorta was removed, cleaned of adherent fat and connective tissue and then cut into 3-mm ring segments. The endothelium was removed from the rings by gently sliding a rolled-up piece of filter paper into the vessel lumen. The rings were then mounted in a water-jacketed tissue bath, maintained at 37° C., between moveable and fixed ends of a stainless steel wire with the moveable end attached to an FT03 Grass transducer coupled to a Model 7D Grass Polygraph for recording isometric force responses. The bath was filled with 20 ml of oxygenated (95% oxygen/5% carbon dioxide) Krebs solution of the following composition (mM): 130 NaCl, 15 NaHCO3, 15 KCl, 1.2 NaH2 P04, 1.2 MgSO4, 2.5 CaCl2, and 11.4 glucose. The preparations were equilibrated for one hour before approximately one gram of passive tension was placed on the rings. Angiotensin II concentration-response curves were then recorded (3×10^-10 to 1×10^-5 M). […] The effectiveness of the test compound was expressed in terms of pA2 values and were calculated according to H. O. Schild [Br. J. Pharmacol. Chemother., 2, 189-206 (1947)]. […] Each test antagonist was evaluated in aorta rings from two, rabbits.

angiotensin II = settings: binding experiments, functional assays and in vivo tests; cited from earlier work
angiotensin II receptors = settings: cited from earlier work

Which “mean arterial pressure after administration, time 10” value ([1]; time 10, AII infusion 50 ng/kg/min, two rats (baseline/after AII 116/168 and 126/175 mmHg)) does the source give for `CCCCc1cn(CCCC)c(=O)n1Cc1ccc(-c2ccccc2-c2nnn[nH]2)cc1` [Example 1, 1,4-dibutyl-1,3-dihydro-3-[2'-(1H-tetrazol-5-yl)[1,1'biphenyl]-4-ylmethyl]-2H-imidazol-2-one] here?
The value was 165 mmHg and 166 mmHg.

And the “mean arterial pressure after administration, time 20” value ([1]; time 20, AII-infused rats)?
Its value is 163 mmHg and 155 mmHg.

What about the “mean arterial pressure after administration, time 30” value ([1]; time 30, AII-infused rats) of the same molecule?
The value was 159 mmHg and 147 mmHg.

And the “% inhibition (% I) of the AII pressor response, time 40” value ([1]; time 40, AII-infused rats)?
Its value is 41% and 58%.

What about the “mean arterial pressure after administration, time 40” value ([1]; time 40, AII-infused rats) of the same molecule?
The value was 146 mmHg and 147 mmHg.

And the “% inhibition (% I) of the AII pressor response, time 50” value ([1]; time 50, AII-infused rats)?
Its value is 45% and 89%.

What about the “mean arterial pressure after administration, time 50” value ([1]; time 50, AII-infused rats) of the same molecule?
The value was 144 mmHg and 132 mmHg.

And the “% inhibition (% I) of the AII pressor response, time 60” value ([1]; time 60, AII-infused rats)?
Its value is 54% and 88%.

What about the “mean arterial pressure after administration, time 60” value ([1]; time 60, AII-infused rats) of the same molecule?
Its value is 140 mmHg and 132 mmHg.

What about the “% inhibition (% I) of the AII pressor response, time 90” value ([1]; time 90, AII-infused rats) of the same molecule?
The value was 86% and 96%.

And the “mean arterial pressure after administration, time 90” value ([1]; time 90, AII-infused rats)?
The value was 123 mmHg and 128 mmHg.

What about the “% inhibition (% I) of the AII pressor response, time 120” value ([1]; time 120, AII-infused rats) of the same molecule?
Its value is 85% and 103%.

What about the “mean arterial pressure after administration, time 120” value ([1]; time 120, AII-infused rats) of the same molecule?
The value was 124 mmHg and 125 mmHg.

What about the “% inhibition (% I) of the AII pressor response, time 150” value ([1]; time 150, AII-infused rats) of the same molecule?
The value was 93% and 97%.

What about the “mean arterial pressure after administration, time 150” value ([1]; time 150, AII-infused rats) of the same molecule?
Its value is 119 mmHg and 128 mmHg.

What about the “% inhibition (% I) of the AII pressor response, time 180” value ([1]; time 180, AII-infused rats) of the same molecule?
Its value is 96% and 97%.

What about the “mean arterial pressure after administration, time 180” value ([1]; time 180, AII-infused rats) of the same molecule?
The value was 117 mmHg and 127 mmHg.

What about the “% inhibition (% I) of the AII pressor response, time 210” value ([1]; time 210, AII-infused rats) of the same molecule?
Its value is 106% and 98%.

And the “mean arterial pressure after administration, time 210” value ([1]; time 210, AII-infused rats)?
Its value is 113 mmHg and 127 mmHg.

What about the “% inhibition (% I) of the AII pressor response, time 240” value ([1]; time 240, AII-infused rats) of the same molecule?
Its value is 102% and 89%.

What about the “mean arterial pressure after administration, time 240” value ([1]; time 240, AII-infused rats) of the same molecule?
The value was 115 mmHg and 131 mmHg.

And the “% inhibition (% I) of the AII pressor response, time 270” value ([1]; time 270, AII-infused rats)?
Its value is 96% and 92%.

What about the “mean arterial pressure after administration, time 270” value ([1]; time 270, AII-infused rats) of the same molecule?
The value was 117 mmHg and 130 mmHg.

And the “% inhibition (% I) of the AII pressor response, time 300” value ([1]; time 300, AII-infused rats)?
Its value is 97% and 87%.

What about the “mean arterial pressure after administration, time 300” value ([1]; time 300, AII-infused rats) of the same molecule?
Its value is 117 mmHg and 133 mmHg.

What about the IC50 [2] of the same molecule?
The IC50 was 6.4 nM.

And the Kb (rabbit aortic rings)?
Its Kb is 2.51 nM.

For `CCCCc1nc(Cl)c(CC(=O)O)n1Cc1ccccc1Cl` [2-n-butyl-4-chloro-l-(2-chlorobenzyl)imidazole-5-acetic acid], which “angiotensin II antagonist activity” value (angiotensin II) is on record?
The value was “specific competitive angiotensin II antagonist activity”.

With `CCCCc1nc(Cl)c(CC(=O)O)n1Cc1ccccc1[N+](=O)[O-]` [2-butyl-4-choloro-l-(2-nitrobenzyl)imidazole-5-acetic acid] as the molecule, how does the “angiotensin II antagonist activity” value (angiotensin II) read?
The value was “specific competitive angiotensin II antagonist activity”.

Which residual agonist activity (angiotensin II receptors) does the source give for `CNCC(=O)N[C@@H](CCCN=C(N)N)C(=O)N[C@H](C(=O)N[C@@H](Cc1ccc(O)cc1)C(=O)N[C@H](C(=O)N[C@@H](Cc1cnc[nH]1)C(=O)N1CCC[C@H]1C(=O)N[C@@H](C)C(=O)O)C(C)C)C(C)C` [Saralasin] here?
Its residual agonist activity is “significant residual agonist activity”.
